Measured values taken from article PMC8802628, “Selective activation of PFKL suppresses the phagocytic oxidative burst” (Cell, 2021).

Assays:
recombinant NE = target: T1, recombinant NE (Homo sapiens, UniProt P08246); test: NE activity assay; format: biochemical
T1 construct: purchased Abcam ab91099
Experimental: NA-11 and LDC7559 were incubated at the indicated concentrations with 25 ng of recombinant NE for 20 min. NE activity was measured using a fluorescence NE activity assay kit (Abcam).

GSDMD = target: T2, GSDMD (Homo sapiens, UniProt P57764); test: LPS-induced cleavage of GSDMD in monocytes (western blot); format: cell-based; set-up: endogenous in cells; host or cells: primary human monocytes electroporated with LPS; conditions: monocytes electroporated with LPS
T2 sequence (P57764 1-484): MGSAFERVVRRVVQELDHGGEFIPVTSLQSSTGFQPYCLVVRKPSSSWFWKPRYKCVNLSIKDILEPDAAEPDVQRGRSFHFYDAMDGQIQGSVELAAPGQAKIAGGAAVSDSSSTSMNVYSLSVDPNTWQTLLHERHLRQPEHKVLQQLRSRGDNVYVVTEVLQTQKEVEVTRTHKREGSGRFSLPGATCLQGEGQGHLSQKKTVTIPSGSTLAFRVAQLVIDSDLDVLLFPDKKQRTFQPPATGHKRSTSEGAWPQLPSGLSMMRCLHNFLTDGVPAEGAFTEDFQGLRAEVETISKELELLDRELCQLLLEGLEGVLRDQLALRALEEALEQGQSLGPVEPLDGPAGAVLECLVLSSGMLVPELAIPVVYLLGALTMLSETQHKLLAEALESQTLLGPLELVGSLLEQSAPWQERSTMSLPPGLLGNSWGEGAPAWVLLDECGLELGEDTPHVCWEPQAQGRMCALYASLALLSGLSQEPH
Experimental: LDH released into the culture medium was measured 1-3 h post-activation using a CellTox Green Cytotoxicity assay (Promega). IL-1β secretion was measured using a MSD Cytokine Assay, 96-well multi-array Tissue Culture Kit (Meso Scale Discovery). For immunoblotting, monocytes (2 × 10^6) were treated with 10-50 μM LCD7559 or 50 μM VX765 and electroporated with 25 μg/mL LPS using the NEON electroporation system. Cells were lysed after 1 h using lysis buffer (50 mM Tris pH 7.4, 150 mM NaCl, 10% glycerol, 1% NP-40, 1 mM MgCl and 1X Roche cOmplete protease inhibitor cocktail) and protein concentration was determined via BCA protein assay (Peirce). Antibodies for immunoblotting were GSDMD (L60, Cell Signaling Technologies), cleaved GSDMD-Asp275 (E7H9G, Cell Signaling Technologies) and GAPDH (14C10, Cell Signaling Technologies).

PMNs [1] = test: NADPH/NADP+ detection assay in neutrophils; format: cell-based, human
Experimental: The ratio of NADPH/NADP^+ (or NADH/NAD^+) was calculated after measuring the individual concentrations of NADPH and NADP^+ (or NADH and NAD^+) with NADP/NADPH-Glo (or NAD/NADH-Glo) assays (Promega). […] Cells were lysed in plates by addition of 1% dodecyltrimethylammonium bromide (DTAB). To measure NADPH, half of the samples was heated at 60 °C for 30 min. The other half was treated with HCl before heating to 60°C, to measure NADP^+. All samples were neutralized before adding luciferase detection reagent, then incubated for 1 h with gentle shaking. Luminescence was recorded on a plate reader (Envision).

recombinant NAMPT = target: T3, recombinant NAMPT (Homo sapiens, UniProt P43490); test: NAMPT activity assay; format: biochemical; conditions: 500 nM to 160 pM
T3 construct: purchased BPS Bioscience 71276-1
Experimental: NA-11 was diluted in ultra-pure water at concentrations between 500 nM to 160 pM, and preincubated with recombinant NAMPT for 30 min. NAMPT activity was measured using a fluorescence NAMPT Inhibitor Screening assay kit (BPS Bioscience).

PMNs [2] = test: LC-MS of glycolysis and pentose phosphate pathway metabolites; format: cell-based, human
Experimental: Neutrophils (1 × 10^7) were untreated or pretreated with 0.5 μM NA-11 for 25 min, and then activated with 50 nM PMA for 30 min. Cell were washed twice in D-PBS and frozen in liquid nitrogen. Metabolites were extracted following protein precipitation using 500 μL cold (−80°C) MeOH:H2O (8:2, V:V) mixture. Aliquots (250 μL) were evaporated and reconstituted with 75 μL of MeOH:H2O (8:2, V:V) containing a series of stable isotope labeled internal standards. LC-MS analysis was performed on a Shimadzu Nexera HPLC series system (Shimadzu, Kyoto, Japan) couple with a Thermo Q Exactive Plus Hybrid Quadrupole-Orbitrap Mass Spectrometer (Thermo Fisher Scientific, Waltham, MA, USA). A Phenomenex Luna NH2 HPLC column (100 Å, 250 mm × 2 mm × 3 μm, Phenomenex, Torrance, CA, USA) was used to separate the analytes of interest. Samples (5 μL) were analyzed under Heated Electrospray Ionization (HESI) in negative mode with a flow rate of 0.4 mL/min and a total run time of 50 min. The mobile phases consisted of (A) 20 mM ammonium hydroxide and 20 mM ammonium acetate in H2O and (B) acetonitrile. The gradient was 0 min, 85% B; 0.5 min, 85% B; 15 min, 0% B; 38 min, 0% B; 40 min, 85% B; 50 min, 85% B. The autosampler temperature was 4°C, and the column temperature was 40°C. The Q Exactive Plus Mass Spectrometer parameters were: sheath gas flow rate, 50 units; aux gas flow rate, 13 units; aux gas temperature, 425°C; capillary temperature, 263°C; spray voltage, −2500 V; scan mode, full MS; scan range, 60-900 m/z; resolution, 70,000; AGC target, 3 × 10^6; maximum IT, 200 ms. Data was processed with TraceFinder (Thermo Fisher Scientific, Waltham, MA, USA). %RSDs of a series of stable isotope-labeled internal standards were calculated to check system suitability and data robustness. Relative MS peak area ratio (Peak Area of Analyte / Peak Area of Internal Standard) was used for compound quantification. […] Pyruvate concentration was quantified using a calibration curve of chemical standard (with stable isotope labeled internal standard, Pyruvate-^13C3) in the surrogate matrix.

[3] = in the context of PMA activation

T1 sequence (P08246 30-267): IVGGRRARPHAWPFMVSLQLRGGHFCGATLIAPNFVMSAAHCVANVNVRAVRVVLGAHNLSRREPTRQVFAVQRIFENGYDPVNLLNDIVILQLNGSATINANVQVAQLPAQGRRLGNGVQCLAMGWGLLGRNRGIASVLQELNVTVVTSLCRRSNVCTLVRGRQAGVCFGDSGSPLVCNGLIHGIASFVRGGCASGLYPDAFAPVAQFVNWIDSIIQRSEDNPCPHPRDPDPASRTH
T3 sequence (P43490 whole entry, species assumed): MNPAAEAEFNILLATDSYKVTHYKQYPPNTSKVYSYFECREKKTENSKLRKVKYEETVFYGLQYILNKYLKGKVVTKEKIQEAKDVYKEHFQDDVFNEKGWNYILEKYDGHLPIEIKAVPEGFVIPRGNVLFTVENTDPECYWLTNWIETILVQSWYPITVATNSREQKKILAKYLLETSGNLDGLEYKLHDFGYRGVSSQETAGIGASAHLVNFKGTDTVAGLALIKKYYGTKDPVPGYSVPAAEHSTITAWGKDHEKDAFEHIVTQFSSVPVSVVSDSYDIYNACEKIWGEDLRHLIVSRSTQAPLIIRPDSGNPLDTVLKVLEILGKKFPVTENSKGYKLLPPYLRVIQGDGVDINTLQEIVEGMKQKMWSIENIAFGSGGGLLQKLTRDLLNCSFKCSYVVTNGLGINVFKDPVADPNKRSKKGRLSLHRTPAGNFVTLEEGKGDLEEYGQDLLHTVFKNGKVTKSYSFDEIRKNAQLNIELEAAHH

Structure (SMILES)	inhibition of recombinant NE (recombinant NE)	LPS-induced cleavage of GSDMD (GSDMD)	NADPH replenishment / turnover after apocynin (PMNs [1]; PMA 30 min, then apocynin)	NADPH/NADP+ ratio in resting cells (PMNs [1]; resting neutrophils)	activity of recombinant NAMPT (recombinant NAMPT)	levels of FBP (PMNs [2]; compound alone, no PMA)	glycolysis metabolites (FBP, DHAP, G-3-P) (PMNs [2]; [3])	pentose phosphate pathway metabolites (PMNs [2]; [3])
COc1ccccc1-c1cc2n(n1)Cc1ccc(NC(C)=O)cc1OC2 [LDC7559, reference compound]	neither LDC7559 nor NA-11 inhibited recombinant NE	did not prevent LPS-induced cleavage of GSDMD	–	–	–	–	–	–
CC(=O)Nc1ccc2c(c1)OCc1cc(-c3ccccc3C#CCCCO)nn1C2 [NA-11]	neither LDC7559 nor NA-11 inhibited recombinant NE	–	slower to replenish NADPH	did not change the NADPH/NADP^+ ratio	did not affect the activity of recombinant NAMPT	slightly increased levels of FBP	increased glycolysis metabolites	maintained pentose phosphate pathway metabolites at baseline levels
